Laboratory results published in patent publication US8481732B2 (Incyte Corporation, priority 2009, dated 2013).
pIC50: −log10 of the molar value.

target: T1, histamine H4 receptor (Homo sapiens, UniProt Q9H3N8); assay: H4 Membrane Binding Assay (3H-Histamine displacement); conditions: membranes of recombinant HEK293SFM cells, 10 nM 3H-Histamine, 1.5 hr at room temperature
T1 construct: expressed in transfected cells; host or cells: HEK293SFM cells (membrane preparation)
Summary of the method: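 Membranes from HEK293SFM cells expressing human H4 (also human H1–H3, mouse H4), prepared in ice-cold 50 mM Tris-HCl pH 7.5. [3H]-histamine displacement, nonspecific binding defined with 1000× unlabeled ligand. Bound radioactivity separated on PEI-treated GF/B filters and measured by liquid scintillation counting.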

SMILES | pIC50
CN1CCN(c2nc(N)nc3cc(C(=O)NCc4ccc(-c5ccccc5)cc4)ccc23)CC1 [Example 33] | 6.72
CN1CCN(c2cc(-c3ccc4c(c3)CN(C(=O)Nc3cccc(Cl)c3F)CC4)nc(N)n2)CC1 [Example 40, 7-[2-Amino-6-(4-methylpiperazin-1-yl)pyrimidin-4-yl]-N-(3-chloro-2-fluorophenyl)-3,4-dihydroisoquinoline-2(1H)-carboxamide] | 7.80
CN1CCN(c2cc(-c3ccc4c(c3)CN(C(=O)Nc3ccc(C#N)cn3)CC4)nc(N)n2)CC1 [Example 43, 7-[2-Amino-6-(4-methylpiperazin-1-yl)pyrimidin-4-yl]-N-(5-cyanopyridin-2-yl)-3,4-dihydroisoquinoline-2(1H)-carboxamide] | 7.24
CN1CCN(c2cc(-c3ccc4c(c3)CN(C(=O)c3cccc(Cl)c3)CC4)nc(N)n2)CC1 [Example 39, 4-[2-(3-Chlorobenzoyl)-1,2,3,4-tetrahydroisoquinolin-7-yl]-6-(4-methylpiperazin-1-yl)pyrimidin-2-amine] | 6.73
CN1CCN(c2cc(-c3ccc4c(c3)CN(C(=O)NC3CCC(C(=O)N(C)C)CC3)CC4)nc(N)n2)CC1 (centres unmarked) [Example 54, 7-[2-Amino-6-(4-methylpiperazin-1-yl)pyrimidin-4-yl]-N-{4-[(dimethylamino)carbonyl]cyclohexyl}-3,4-dihydroisoquinoline-2(1H)-carboxamide] | 6.36
CO[C@@H]1Cc2ccccc2[C@@H]1NC(=O)N1CCc2ccc(-c3cc(N4CCN(C)CC4)nc(N)n3)cc2C1 [Example 57, 7-[2-Amino-6-(4-methylpiperazin-1-yl)pyrimidin-4-yl]-N-[(1S,2R)-2-methoxy-2,3-dihydro-1H-inden-1-yl]-3,4-dihydroisoquinoline-2(1H)-carboxamide] | 7.03
COc1ccc(NC(=O)N2CCc3ccc(-c4cc(N5CCN(C)CC5)nc(N)n4)cc3C2)cn1 [Example 46, 7-[2-Amino-6-(4-methylpiperazin-1-yl)pyrimidin-4-yl]-N-(6-methoxypyridin-3-yl)-3,4-dihydroisoquinoline-2(1H)-carboxamide] | 7.15
CN1CCN(c2cc(-c3ccc4c(c3)CN(C(=O)c3ccc(Cl)cc3)CC4)nc(N)n2)CC1 [Example 2, 4-[2-(4-Chlorobenzoyl)-1,2,3,4-tetrahydroisoquinolin-7-yl]-6-(4-methylpiperazin-1-yl)pyrimidin-2-amine] | 6.76
CN1CCN(c2cc(-c3ccc4c(c3)CN(C(=O)Nc3ccc(C#N)nc3)CC4)nc(N)n2)CC1 [Example 44, 7-[2-Amino-6-(4-methylpiperazin-1-yl)pyrimidin-4-yl]-N-(6-cyanopyridin-3-yl)-3,4-dihydroisoquinoline-2(1H)-carboxamide] | 6.93
CC(NC(=O)c1ccc2c(N3CCN(C)CC3)nc(N)nc2c1)c1ccc(Oc2ccccc2)cc1 (centres unmarked) [Example 29, 2-Amino-4-(4-methylpiperazin-1-yl)-N-[1-(4-henoxyphenyl)ethyl]quinazoline-7-carboxamide] | 6.80
CN1CCN(c2nc(N)nc3cc(C(=O)Nc4ccc(Oc5ccccc5)cc4)ccc23)CC1 [Example 35, 2-Amino-4-(4-methylpiperazin-1-yl)-N-(4-phenoxyphenyl)quinazoline-7-carboxamide] | 6.54
COc1ccc([C@@H](C)NC(=O)c2ccc3c(N4CCN(C)CC4)nc(N)nc3c2)cc1 [Example 30, 2-Amino-N-[(1R)-1-(4-methoxyphenyl)ethyl]-4-(4-methylpiperazin-1-yl)quinazoline-7-carboxamide] | 6.31
CC(C)COC(=O)N1CCc2ccc(-c3cc(N4CCN(C)CC4)nc(N)n3)cc2C1 [Example 10, Isobutyl 7-[2-amino-6-(4-methylpiperazin-1-yl)pyrimidin-4-yl]-3,4-dihydroisoquinoline-2(1H)-carboxylate] | 7.27

Continued, values first:

pIC50 | SMILES
7.08 | CN1CCN(c2cc(-c3ccc4c(c3)CN(C(=O)N3CCC(c5ccccc5)CC3)CC4)nc(N)n2)CC1 [Example 103, 4-(4-Methylpiperazin-1-yl)-6-{2-[(4-phenylpiperidin-1-yl)carbonyl]-1,2,3,4-tetrahydroisoquinolin-7-yl}pyrimidin-2-amine]
7.38 | CC(C)Oc1ccc(C[C@@H](C#N)NC(=O)c2ccc3c(N4CCN(C)CC4)nc(N)nc3c2)cc1 [Example 137]
7.96 | COc1cccc(Oc2cccc(CNC(=O)c3ccc4c(N5CCN(C)CC5)nc(N)nc4c3)c2)c1C#N [Example 190, 2-Amino-N-[3-(2-cyano-3-methoxyphenoxy)benzyl]-4-(4-methylpiperazin-1-yl)quinazoline-7-carboxamide]
7.51 | COc1ccc(Oc2cccc(CC(NC(=O)c3ccc4c(N5CCN(C)CC5)nc(N)nc4c3)C(=O)N(C)C)c2)cc1 (centres unmarked) [Example 166, 2-Amino-N-{2-(dimethylamino)-1-[3-(4-methoxyphenoxy)benzyl]-2-oxoethyl}-4-(4-methylpiperazin-1-yl)quinazoline-7-carboxamide]
6.13 | CN1CCN(c2cc(-c3ccc4c(c3)CN(C(=O)N[C@@H]3CCOC3)CC4)nc(N)n2)CC1 [Example 84, 7-[2-Amino-6-(4-methylpiperazin-1-yl)pyrimidin-4-yl]-N-[(3R)-tetrahydrofuran-3-yl]-3,4-dihydroisoquinoline-2(1H)-carboxamide]
8.18 | COC(=O)c1cccc(-c2ccc(C[C@H](NC(=O)c3ccc4c(N5CCN(C)CC5)nc(N)nc4c3)C(=O)N(C)C)cc2)c1 [Example 158, Methyl 4′-[(2S)-2-({[2-amino-4-(4-methylpiperazin-1-yl)quinazolin-7-yl]carbonyl}amino)-3-(dimethylamino)-3-oxopropyl]biphenyl-3-carboxylate]
7.24 | COc1ccc(-c2ccc(CC(NC(=O)c3ccc4c(N5CCN(C)CC5)nc(N)nc4c3)C(=O)N(C)C)cn2)cc1 (centres unmarked) [Example 164, 2-Amino-N-(-2-(dimethylamino)-1-{[6-(4-methoxyphenyl)pyridin-3-yl]methyl}-2-oxoethyl)-4-(4-methylpiperazin-1-yl)quinazoline-7-carboxamide]
7.39 | CN1CCN(c2nc(N)nc3cc(C(=O)N[C@@H](Cc4ccc(-c5cncc(C#N)c5)cc4)C(=O)N(C)C)ccc23)CC1 [Example 156, 2-Amino-N-[(1S)-1-[4-(5-cyanopyridin-3-yl)benzyl]-2-(dimethylamino)-2-oxoethyl]-4-(4-methylpiperazin-1-yl)quinazoline-7-carboxamide]
7.96 | CN1CCN(c2nc(N)nc3cc(C(=O)NC4CCCc5ccc(OCc6ccc(C#N)cc6)cc54)ccc23)CC1 (centres unmarked) [Example 205, 2-Amino-N-(7-(4-cyanobenzyloxy)-1,2,3,4-tetrahydronaphthalen-1-yl)-4-(4-methylpiperazin-1-yl)quinazoline-7-carboxamide]
7.48 | CN1CCN(c2cc(-c3ccc4c(c3)CN(C(=O)OC3CCN(C(=O)OC5CCCC5)CC3)CC4)nc(N)n2)CC1 [Example 69, 1-[(Cyclopentyloxy)carbonyl]piperidin-4-yl 7-[2-amino-6-(4-methylpiperazin-1-yl)pyrimidin-4-yl]-3,4-dihydroisoquinoline-2(1H)-carboxylate]
8.36 | CC(Oc1cccc(CNC(=O)c2ccc3c(N4CCN(C)CC4)nc(N)nc3c2)c1)c1cccc(C(F)(F)F)c1 (centres unmarked) [Example 196, 2-Amino-4-(4-methylpiperazin-1-yl)-N-(3-{1-[3-(trifluoromethyl)phenyl]ethoxy}benzyl)quinazoline-7-carboxamide]
7.89 | CN1CCN(c2nc(N)nc3cc(C(=O)NC(Cc4cccc(Oc5cc(C#N)ccc5C(F)(F)F)c4)C(=O)N(C)C)ccc23)CC1 (centres unmarked) [Example 171, 2-Amino-N-[1-{3-[5-cyano-2-(trifluoromethyl)phenoxy]benzyl}-2-(dimethylamino)-2-oxoethyl]-4-(4-methylpiperazin-1-yl)quinazoline-7-carboxamide]
7.37 | CN1CCN(c2cc(-c3ccc4c(c3)CN(C(=O)Nc3ccc(-n5cccn5)cc3)CC4)nc(N)n2)CC1 [Example 93, 7-[2-Amino-6-(4-methylpiperazin-1-yl)pyrimidin-4-yl]-N-[4-(1H-pyrazol-1-yl)phenyl]-3,4-dihydroisoquinoline-2(1H)-carboxamide]
7.82 | CN1CCN(c2nc(N)nc3cc(C(=O)NC(Cc4cccc(Oc5cc(Cl)cc(Cl)c5)c4)C(=O)N(C)C)ccc23)CC1 (centres unmarked) [Example 167, 2-Amino-N-[1-[3-(3,5-dichlorophenoxy)benzyl]-2-(dimethylamino)-2-oxoethyl]-4-(4-methylpiperazin-1-yl)quinazoline-7-carboxamide]
6.78 | CO[C@H]1Cc2ccccc2[C@H]1NC(=O)N1CCc2ccc(-c3cc(N4CCN(C)CC4)nc(N)n3)cc2C1 [Example 58, 7-[2-Amino-6-(4-methylpiperazin-1-yl)pyrimidin-4-yl]-N-[(1R,2S)-2-methoxy-2,3-dihydro-1H-inden-1-yl]-3,4-dihydroisoquinoline-2(1H)-carboxamide]
7.42 | CN1CCN(c2cc(-c3ccc4c(c3)CN(C(=O)NC3CCCc5ccccc53)CC4)nc(N)n2)CC1 (centres unmarked) [Example 83, 7-[2-Amino-6-(4-methylpiperazin-1-yl)pyrimidin-4-yl]-N-(1,2,3,4-tetrahydronaphthalen-1-yl)-3,4-dihydroisoquinoline-2(1H)-carboxamide]
7.21 | CC(C)[C@@H](C)NC(=O)N1CCc2ccc(-c3cc(N4CCN(C)CC4)nc(N)n3)cc2C1 [Example 98, 7-[2-Amino-6-(4-methylpiperazin-1-yl)pyrimidin-4-yl]-N-[(1R)-1,2-dimethylpropyl]-3,4-dihydroisoquinoline-2(1H)-carboxamide]
6.28 | CN1CCN(c2nc(N)nc3cc(C(=O)NC(Cc4ccc5c(c4)OC(F)(F)O5)C(=O)N(C)C)ccc23)CC1 (single isomer, unassigned) [Example 145A]
6.81 | CN1CCN(c2nc(N)nc3cc(C(=O)NC(C#N)c4ccccc4)ccc23)CC1 (centres unmarked) [Example 129, 2-Amino-N-[cyano(phenyl)methyl]-4-(4-methylpiperazin-1-yl)quinazoline-7-carboxamide]
